Source: the NIST ThermoML archive (doi:10.1016/j.tca.2013.08.031)

Assay: molar heat capacity at constant volume
Conditions: Fluid (supercritical or subcritical phases), Vacuum adiabatic calorimetry

CCC(C)O (stereo not given) [butan-2-ol]
Conditions	molar heat capacity at constant volume [J/K/mol]
307.37 K, Mass density=794.06 kg/m3	167.81
307.62 K, Mass density=794.06 kg/m3	154.62
307.87 K, Mass density=794.06 kg/m3	157.58
308.12 K, Mass density=794.06 kg/m3	160.7
308.37 K, Mass density=794.06 kg/m3	163.88
308.62 K, Mass density=794.06 kg/m3	165.44
308.87 K, Mass density=794.06 kg/m3	167.74
309.12 K, Mass density=794.06 kg/m3	167.81
309.37 K, Mass density=794.06 kg/m3	168.4
309.62 K, Mass density=794.06 kg/m3	167.22
311.11 K, Mass density=794.06 kg/m3	182.78
321.67 K, Mass density=794.06 kg/m3	204.87
323.61 K, Mass density=794.06 kg/m3	208.36
323.85 K, Mass density=794.06 kg/m3	208.87
324.09 K, Mass density=794.06 kg/m3	208.06
324.33 K, Mass density=794.06 kg/m3	208.8
324.57 K, Mass density=794.06 kg/m3	208.8
324.81 K, Mass density=794.06 kg/m3	207.99
325.06 K, Mass density=794.06 kg/m3	209.76
325.3 K, Mass density=794.06 kg/m3	210.43
325.54 K, Mass density=794.06 kg/m3	211.25
325.78 K, Mass density=769.05 kg/m3	223.77
325.78 K, Mass density=794.06 kg/m3	210.73
326.02 K, Mass density=769.05 kg/m3	224.88
326.02 K, Mass density=794.06 kg/m3	211.32
326.26 K, Mass density=769.05 kg/m3	226.22
326.26 K, Mass density=794.06 kg/m3	213.03
326.5 K, Mass density=769.05 kg/m3	226.29
326.74 K, Mass density=769.05 kg/m3	227.11
326.98 K, Mass density=769.05 kg/m3	226.59
327.22 K, Mass density=769.05 kg/m3	226.59
327.22 K, Mass density=794.06 kg/m3	213.54
327.46 K, Mass density=794.06 kg/m3	212.51
327.7 K, Mass density=794.06 kg/m3	212.8
327.94 K, Mass density=794.06 kg/m3	212.73
328.18 K, Mass density=794.06 kg/m3	212.43
333.2 K, Mass density=769.05 kg/m3	231.33
333.44 K, Mass density=769.05 kg/m3	232.45
333.67 K, Mass density=769.05 kg/m3	231.78
333.91 K, Mass density=769.05 kg/m3	232.59
334.15 K, Mass density=769.05 kg/m3	232.82
334.39 K, Mass density=769.05 kg/m3	233.04
334.62 K, Mass density=769.05 kg/m3	232.82
334.86 K, Mass density=769.05 kg/m3	233.63
335.1 K, Mass density=769.05 kg/m3	234.15
335.33 K, Mass density=769.05 kg/m3	233.41
335.57 K, Mass density=769.05 kg/m3	225.63
335.81 K, Mass density=769.05 kg/m3	219.55
336.04 K, Mass density=769.05 kg/m3	213.77
336.28 K, Mass density=769.05 kg/m3	209.39
336.52 K, Mass density=769.05 kg/m3	207.32
336.75 K, Mass density=769.05 kg/m3	207.02
337.46 K, Mass density=769.05 kg/m3	204.72
337.93 K, Mass density=769.05 kg/m3	204.8
338.64 K, Mass density=769.05 kg/m3	204.35
339.34 K, Mass density=769.05 kg/m3	203.76
349.82 K, Mass density=735.98 kg/m3	241.34
350.05 K, Mass density=735.98 kg/m3	242.01
350.28 K, Mass density=735.98 kg/m3	243.56
350.51 K, Mass density=735.98 kg/m3	243.19
350.74 K, Mass density=735.98 kg/m3	243.49
352.35 K, Mass density=769.05 kg/m3	218.36
352.58 K, Mass density=769.05 kg/m3	219.99
353.27 K, Mass density=735.98 kg/m3	242.23
353.49 K, Mass density=735.98 kg/m3	245.19
353.72 K, Mass density=735.98 kg/m3	244.68
353.95 K, Mass density=735.98 kg/m3	243.34
354.18 K, Mass density=735.98 kg/m3	245.12
354.41 K, Mass density=735.98 kg/m3	243.86
354.64 K, Mass density=735.98 kg/m3	245.56
364.16 K, Mass density=735.98 kg/m3	251.2
364.39 K, Mass density=735.98 kg/m3	251.35
364.61 K, Mass density=735.98 kg/m3	252.01
364.84 K, Mass density=735.98 kg/m3	252.16
365.06 K, Mass density=735.98 kg/m3	251.79
365.29 K, Mass density=735.98 kg/m3	251.79
365.51 K, Mass density=735.98 kg/m3	252.01
366.41 K, Mass density=735.98 kg/m3	253.2
366.63 K, Mass density=735.98 kg/m3	248.46
366.86 K, Mass density=735.98 kg/m3	245.27
367.08 K, Mass density=735.98 kg/m3	226.44
367.31 K, Mass density=735.98 kg/m3	219.84
367.53 K, Mass density=735.98 kg/m3	215.18
367.75 K, Mass density=735.98 kg/m3	213.69
367.98 K, Mass density=735.98 kg/m3	212.88
368.2 K, Mass density=735.98 kg/m3	213.25
369.54 K, Mass density=735.98 kg/m3	213.69
369.76 K, Mass density=735.98 kg/m3	214.43
369.99 K, Mass density=735.98 kg/m3	214.66
371.32 K, Mass density=683.53 kg/m3	261.13
371.54 K, Mass density=683.53 kg/m3	261.43
371.77 K, Mass density=683.53 kg/m3	261.72
371.99 K, Mass density=683.53 kg/m3	263.06
372.21 K, Mass density=683.53 kg/m3	263.95
372.43 K, Mass density=683.53 kg/m3	260.76
372.65 K, Mass density=683.53 kg/m3	259.87
373.1 K, Mass density=735.98 kg/m3	216.29
373.32 K, Mass density=735.98 kg/m3	217.25
373.54 K, Mass density=735.98 kg/m3	217.99
373.76 K, Mass density=735.98 kg/m3	219.7
373.98 K, Mass density=735.98 kg/m3	219.03
374.21 K, Mass density=735.98 kg/m3	216.66
374.43 K, Mass density=735.98 kg/m3	217.4
374.65 K, Mass density=735.98 kg/m3	217.47
374.87 K, Mass density=735.98 kg/m3	218.51
